{"source": "patent US20020031787A1", "about": "“Compositions and methods for reducing autoimmunity” (priority 2000, published 2002)", "test_system": "NOD mice", "conditions": "mouse, in vivo", "note": "Where no end group is shown, it is not given here."}
{"substance": "insulin B chain 8-20 amino acid peptide (GSHLVEALYLVCG; ends and bridges not checked; UniProt P01308 32-44, looked up, fragment) [islet cell antigen peptide added to the vaccines]", "values": [{"measurement": "effect of the vaccines on diabetes when the peptide was added", "result": "enhanced"}]}
